Measurements: paper PMC9172283 (Antiviral Research, 2022)

What was measured:
SARS-CoV-2 [1] = experiment: Plaque reduction assay; format: cell-based, SARS-CoV-2/NL/2020 strain; conditions: ratio between CC50 and EC50; SARS-CoV-2, Vero E6 cells
[2] = MTT cell viability assay in Vero E6 cells; format: cell-based; conditions: African green monkey
SARS-CoV-2 M^pro = SARS-CoV-2 M^pro (Severe acute respiratory syndrome coronavirus 2, UniProt P0DTD1); experiment: FRET-based SARS-CoV-2 M^pro activity assay in vitro; format: biochemical; conditions: for Inhibitory effect on M^pro catalytic activity at fixed concentration: 100 μM, cut-off 50% of inhibition
[3] = MTT cell viability assay in MRC-5 cells; format: cell-based; conditions: human
HCoV-229E = experiment: microbe, parasite or virus in culture; format: cell-based; conditions: for EC50: Human coronavirus 229E, MRC5, 144 h, read-out: HCoV-229E EC50
HCoV-OC43 = experiment: Plaque reduction assay against HCoV-OC43 in MRC-5 cells; format: cell-based; conditions: infected MRC-5 cells
[4] = system: SARS-CoV-2 M^pro (NanoLuc-nsp4-M^pro fusion protein); format: cell-based
SARS-CoV-2 [5] = experiment: Virus yield reduction assay of SARS-CoV-2 in Calu-3 cells; format: cell-based; conditions: MOI 0.01, 36 h p.i., titration on Vero E6

Compound	SI, Selectivity Index (SARS-CoV-2 [1])	CC50 at 72 h [2]	IC50 (SARS-CoV-2 M^pro)	Inhibitory effect on M^pro catalytic activity at fixed concentration (SARS-CoV-2 M^pro)	also measured
CCNC(=O)[C@@H](NC(=O)c1ccccc1NC(=O)c1ccc(OC)cc1)C(C)C [Compound 34, (S)-N-(1-(Ethylamino)-3-methyl-1-oxobutan-2-yl)-2-(4-methoxybenzamido)benzamide]	>5	> 250 µM			
CC(C)[C@H](NC(=O)c1ccccc1NC(=O)c1ccc(O)cc1)C(=O)N[C@H](CO)C(C)C [Compound 35, N-((S)-1-(((S)-1-Hydroxy-3-methylbutan-2-yl)amino)-3-methyl-1-oxobutan-2-yl)-2-(4-hydroxybenzamido)benzamide]	>10	> 250 µM	19 ± 8.4 µM		
COC(=O)C1=C(CN2CCN(C(=O)OC(C)(C)C)CC2)NC(=O)NC1c1ccccc1 (stereo not drawn) [Compound 16]	10	401 ± 52 µM			
COc1ccc(Cc2nn3c([C@@H](CCCc4ccccc4)[C@@H](C)O)nc(C)c3c(=O)[nH]2)cc1OC [Compound 23]				not a significant inhibitory effect	
COc1ccc(-c2cc(C(F)(F)F)n3ncc(C(=O)Nc4sc5c(c4C(N)=O)CCCC5)c3n2)cc1 [Compound 26]	7	68.9 ± 10 µM	57.6 ± 4.1 µM	exerted an inhibitory effect	
CC(NC(=O)C(=O)NCCN1CCOCC1)C(c1cccs1)N1CCN(c2ccccc2)CC1 (stereo not drawn) [Compound 2]	>10	> 500 µM			
CCOc1ccccc1NC(=O)C(=O)NCC(c1cccnc1)N1CCN(c2ccccc2)CC1 (stereo not drawn) [Compound 3]	>40	> 500 µM		not a significant inhibitory effect	CC50 at 72 h [3]: > 500 µM; Activity towards HCoV-229E (HCoV-229E): retained activity; EC50 (HCoV-229E): 34.6 ± 8.5 µM; Activity towards HCoV-OC43 (HCoV-OC43): retained activity
Nc1ncnc2c1ncn2[C@@H]1O[C@H](CSCC[C@H](N)C(=O)O)[C@@H](O)[C@H]1O [Compound 22]	>10	> 500 µM			
COc1ccc(NC2=NC(=O)CC(C(=O)NCc3ccccc3)N2)cc1 (stereo not drawn) [Compound 13]	>10	> 500 µM			
O=C(NC(Cc1ccccc1)C(=O)NCc1ccccn1)OCc1ccccc1 (stereo not drawn) [Compound 12]	21	428 ± 11 µM		not a significant inhibitory effect	
COc1ccc(C(=O)Nc2ccccc2C(=O)NC(C(=O)Nc2ccccc2)C(C)C)cc1 (stereo not drawn) [Compound 7]	>10	> 500 µM	111 ± 2.2 µM	exerted an inhibitory effect	
COc1ccc(C(=O)CN(C(=O)c2ccc(Cl)cc2)N2C(=O)CCC2=O)cc1 [Compound 20]	>10	> 500 µM			
CCN1CCN(C(C(=O)O)c2c[nH]c3ccc(NC(=O)CCC(=O)O)cc23)CC1 (stereo not drawn) [Compound 14]	>10	> 500 µM			
CC(C)(C)NC(=O)N[C@H](C(=O)N1C[C@H]2[C@@H]([C@H]1C(=O)NC(CC1CCC1)C(=O)C(N)=O)C2(C)C)C(C)(C)C (stereo partly drawn) [BOC, Boceprevir, reference compound]		> 500 µM			Inhibition of proteolytic cleavage of NanoLuc-nsp4-M^pro in cells [4]: not detected
CCC(C)NC(=O)c1ccccc1NC(=O)c1cccc(S(=O)(=O)Nc2ccccc2)c1 (stereo not drawn) [Compound 29]		> 500 µM		not a significant inhibitory effect	CC50 at 72 h [3]: > 250 µM; Activity towards HCoV-229E (HCoV-229E): retained activity; EC50 (HCoV-229E): 15.7 ± 4.8 µM; Activity towards HCoV-OC43 (HCoV-OC43): retained activity
COc1ccc(C(=O)COC(=O)C(Cc2ccccc2)N2C(=O)C3C4C=CC(C4)C3C2=O)cc1 (stereo not drawn) [Compound 18]	>10	> 500 µM			
COc1ccc2c(c1)c(CC(=O)O)c(C)n2C(=O)c1ccc(Cl)cc1 [Compound 21]	>10	> 500 µM			
CCOc1ccc(NC(=O)C(=O)NCCc2csc3nc(-c4cccs4)nn23)cc1 [Compound 1]	>10	> 500 µM	142 ± 12 µM	exerted an inhibitory effect	
O=C(Nc1ccc2c(c1)OCO2)c1nnc(C(=O)N2CCCC(C(=O)NCc3ccccc3)C2)s1 (stereo not drawn) [Compound 5]	29	207 ± 14 µM	29 ± 3.7 µM	exerted an inhibitory effect	CC50 at 72 h [3]: 100 ± 11.9 µM; Activity towards HCoV-229E (HCoV-229E): retained activity; EC50 (HCoV-229E): 10.4 ± 4.1 µM; SARS-CoV-2 titers in supernatants of infected and treated Calu-3 cells (SARS-CoV-2 [5]): significantly reduced SARS-CoV-2 titers; Activity towards HCoV-OC43 (HCoV-OC43): retained activity

Compound	SI, Selectivity Index (SARS-CoV-2 [1])	CC50 at 72 h [2]	IC50 (SARS-CoV-2 M^pro)	Inhibitory effect on M^pro catalytic activity at fixed concentration (SARS-CoV-2 M^pro)	also measured
COc1ccc(C(=O)Nc2ccccc2C(=O)N[C@H](C(=O)Nc2ccccc2)C(C)C)cc1 [Compound 31, (S)-2-(4-Methoxybenzamido)-N-(3-methyl-1-oxo-1-(phenylamino)butan-2-yl)benzamide]	>5	> 250 µM	43.7 ± 9.2 µM		Fold increase of inhibitory potency against M^pro compared to parental hit 7 (SARS-CoV-2 M^pro; compared to hit 7): > 2 fold
NC(=O)c1c(NC(=O)c2cnn3c(C(F)F)cc(-c4ccccc4)nc23)sc2c1CCCC2 [Compound 28]	>5	> 250 µM			
O=C(Nc1ccccc1C(=O)NCc1ccccc1)c1cc(S(=O)(=O)N2CCOCC2)ccc1F [Compound 9]	>10	> 500 µM			
CCOC(=O)C(NC(=O)COc1ccccc1)(Nc1nc2ccccc2s1)C(F)(F)F (stereo not drawn) [Compound 8]	3	68.8 ± 15.4 µM			
O=C(NCc1ccc(F)cc1)C(=O)NCC(c1cccnc1)N1CCN(c2ccccc2)CC1 (stereo not drawn) [Compound 4]	>24	> 500 µM		not a significant inhibitory effect	CC50 at 72 h [3]: 300 ± 18 µM; Activity towards HCoV-229E (HCoV-229E): retained activity; EC50 (HCoV-229E): 23.8 ± 9.9 µM; Activity towards HCoV-OC43 (HCoV-OC43): retained activity
CCC(C)NC(=O)c1ccccc1NC(=O)c1ccc(C)c(S(=O)(=O)Nc2cccc(NC(=O)c3ccccc3)c2)c1 (stereo not drawn) [Compound 30]	>10	> 500 µM			
CCc1cc(Br)cc2c(C(=O)N3CCOCC3)cc(-c3ccc(OC)cc3)nc12 [Compound 19]	32	228 ± 69 µM		not a significant inhibitory effect	
CC(=O)NCC(=O)NC1(C(=O)NC(c2ccccc2)c2ccccc2)CCCCC1 [Compound 11]	>10	> 500 µM			
COc1ccc(C(=O)Nc2ccccc2C(=O)N[C@H](C(=O)N[C@H](CO)C(C)C)C(C)C)cc1 [Compound 32, N-((S)-1-(((S)-1-Hydroxy-3-methylbutan-2-yl)amino)-3-methyl-1-oxobutan-2-yl)-2-(4-methoxybenzamido)benzamide]	>8	> 250 µM	> 200 µM		
CCOC(=O)C1=C(CN2CCCN(C(=O)OC(C)(C)C)CC2)NC(=O)NC1c1ccc(C)cc1 (stereo not drawn) [Compound 15]	8	113 ± 3 µM			
CCC(CC)COC(=O)[C@H](C)N[P@](=O)(OC[C@H]1O[C@@](C#N)(c2ccc3c(N)ncnn23)[C@H](O)[C@@H]1O)Oc1ccccc1 [RMV, remdesivir, reference compound]		> 250 µM			EC50 (HCoV-229E): 0.09 ± 0.03 µM
Cc1ccc(-c2cc(C(F)(F)F)n3ncc(C(=O)Nc4sc5c(c4C(N)=O)CCCC5)c3n2)cc1 [Compound 27]	5	67.9 ± 16.5 µM	46.2 ± 7.7 µM	exerted an inhibitory effect	
NC(=O)c1c(NC(=O)c2cnn3c(C(F)(F)F)cc(-c4ccccc4)nc23)sc2c1CCCC2 [Compound 25]	>31	> 250 µM	26.6 ± 7.4 µM	exerted an inhibitory effect	CC50 at 72 h [3]: > 250 µM; EC50 (HCoV-229E): > 25 µM; SARS-CoV-2 titers in supernatants of infected and treated Calu-3 cells (SARS-CoV-2 [5]): significantly reduced SARS-CoV-2 titers; Activity towards HCoV-OC43 (HCoV-OC43): retained activity
COc1ccc(C(=O)Nc2ccccc2C(=O)N[C@H](C(=O)NC2CCCCC2)C(C)C)cc1 [Compound 33, (S)-N-(1-(Cyclohexylamino)-3-methyl-1-oxobutan-2-yl)-2-(4-methoxybenzamido)benzamide]	>7	> 250 µM	26.7 ± 7.3 µM		
O=C(CCC(=O)NNC(=O)C(c1ccccc1)c1ccccc1)NCc1ccccc1 [Compound 10]	>10	> 500 µM	128 ± 18.8 µM	exerted an inhibitory effect	
CCC(C)C(NC(=O)C1N2C(=O)c3ccccc3C2SC1(C)C)C(=O)NC(CO)C(C)C (stereo not drawn) [Compound 6]		> 500 µM	> 100 µM	not a significant inhibitory effect	CC50 at 72 h [3]: > 500 µM; Activity towards HCoV-229E (HCoV-229E): retained activity; EC50 (HCoV-229E): 22.9 ± 4.9 µM; SARS-CoV-2 titers in supernatants of infected and treated Calu-3 cells (SARS-CoV-2 [5]): significantly reduced SARS-CoV-2 titers; Activity towards HCoV-OC43 (HCoV-OC43): retained activity
CCOC(=O)C1=C(CN2CCC(NC(=O)OC(C)(C)C)CC2)NC(=O)NC1c1ccccc1 (stereo not drawn) [Compound 17]	>5	228 ± 6 µM			
COc1ccc(-c2ocnc2C(=O)NCCCn2cncn2)cc1Cl [Compound 24]		> 500 µM		not a significant inhibitory effect	
